Article PMC11083148, “Structure–Activity Relationship Studies on Highly Functionalized Pyrazole Hydrazones and Amides as Antiproliferative and Antioxidant Agents” (International Journal of Molecular Sciences, 2024)

How the values were obtained:
[1] = system: SK-MEL-28; assay: NCI screening, Melanoma; assay type: cell-based; settings: SK-MEL-28, Melanoma; 10 µM
Experimental: (§1) In addition, 11a and 17 (representative compounds of the acylhydrazone and amide series) were selected by the National Cancer Institute (NCI, Germantown, MD, USA) and tested at a fixed concentration of 10 µM against a panel of fifty-nine different cancer cell lines, including highly metastatic tumors (Table 2).

[2] = system: SK-MEL-2; assay: NCI screening, Melanoma; assay type: cell-based; settings: SK-MEL-2, Melanoma; 10 µM
Experimental: as §1

[3] = system: SK-MEL-5; assay: NCI screening, Melanoma; assay type: cell-based; settings: SK-MEL-5, Melanoma; 10 µM
Experimental: as §1

[4] = system: UACC-257; assay: NCI screening, Melanoma; assay type: cell-based; settings: UACC-257, Melanoma; 10 µM
Experimental: as §1

[5] = system: MALME-3M; assay: NCI screening, Melanoma; assay type: cell-based; settings: 10 µM
Experimental: as §1

[6] = system: UACC-62; assay: NCI screening, Melanoma; assay type: cell-based; settings: UACC-62, Melanoma; 10 µM
Experimental: as §1

[7] = system: CAKI-1; assay: NCI screening, Renal Cancer; assay type: cell-based; settings: CAKI-1, Renal Cancer; 10 µM
Experimental: as §1

[8] = system: RXF 393; assay: NCI screening, Renal Cancer; assay type: cell-based; settings: RXF 393, Renal Cancer; 10 µM
Experimental: as §1

[9] = system: TK-10; assay: NCI screening, Renal Cancer; assay type: cell-based; settings: TK-10, Renal Cancer; 10 µM
Experimental: as §1

[10] = system: 786-0; assay: NCI screening, Renal Cancer; assay type: cell-based; settings: 786-0, Renal Cancer; 10 µM
Experimental: as §1

[11] = system: SN12C; assay: NCI screening, Renal Cancer; assay type: cell-based; settings: 10 µM
Experimental: as §1

[12] = system: A498; assay: NCI screening, Renal Cancer; assay type: cell-based; settings: 10 µM
Experimental: as §1

[13] = system: ACHN; assay: NCI screening, Renal Cancer; assay type: cell-based; settings: 10 µM
Experimental: as §1

[14] = system: UO-31; assay: NCI screening, Renal Cancer; assay type: cell-based; settings: UO-31, Renal Cancer; 10 µM
Experimental: as §1

[15] = system: BT-549; assay: NCI screening, Breast Cancer; assay type: cell-based; settings: BT-549, Breast Cancer; 10 µM
Experimental: as §1

[16] = system: T-47D; assay: NCI screening, Breast Cancer; assay type: cell-based; settings: 10 µM
Experimental: as §1

[17] = system: MDA-MB-231/ATCC; assay: NCI screening, Breast Cancer; assay type: cell-based; settings: 10 µM
Experimental: as §1

[18] = system: MDA-MB231; assay: MTT assay, antiproliferative activity; assay type: cell-based; settings: Homo sapiens, MDA-MB-231, 48h
Outline: (§2)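 Cells plated 16 h, then exposed to compounds at 10 μM final for 48 h at 37 °C, 5% CO2. MTT added for 4 h, formazan dissolved in DMSO, absorbance read at 570 nm; values as percent of DMSO-only control, mean of three experiments in six replicates.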

[19] = system: SK-BR3; assay: MTT assay, antiproliferative activity; assay type: cell-based; settings: Homo sapiens, SK-BR-3, 48h
Outline: as §2

[20] = system: Hep-G2; assay: MTT assay, antiproliferative activity; assay type: cell-based; settings: Homo sapiens, HepG2, 48h
Outline: as §2

[21] = system: A549; assay: MTT assay, antiproliferative activity; assay type: cell-based; settings: Homo sapiens, 48h, read-out: Mean Growth Percentage
Outline: as §2

[22] = system: PC-3; assay: NCI screening, Prostate Cancer; assay type: cell-based; settings: PC-3, Prostate Cancer; 10 µM
Experimental: as §1

[23] = system: DU-145; assay: NCI screening, Prostate Cancer; assay type: cell-based; settings: DU-145, Prostate Cancer; 10 µM
Experimental: as §1

Compound	Growth Percentage (%) [1]	Growth Percentage (%) [2]	Growth Percentage (%) [3]	Growth Percentage (%) [4]	Growth Percentage (%) [5]	Growth Percentage (%) [6]	Growth Percentage (%) [7]	Growth Percentage (%) [8]	Growth Percentage (%) [9]	Growth Percentage (%) [10]	Growth Percentage (%) [11]	Growth Percentage (%) [12]	Growth Percentage (%) [13]	Growth Percentage (%) [14]	Growth Percentage (%) [15]	Growth Percentage (%) [16]	Growth Percentage (%) [17]	Mean growth percentage at 10 µM [18]	Mean growth percentage at 10 µM [19]	Mean growth percentage at 10 µM [20]	other results
COc1ccc(/C=N/NC(=O)c2c(N)nn(C)c2Nc2ccccc2)cc1 [11a, (E)-3-amino-N′-(4-methoxybenzylidene)-1-methyl-5-(phenylamino)-1H-pyrazole-4-carbohydrazide]	57.48%	70.70%	57.21%	56.35%	44.75%	23.72%	39.84%	37.26%	89.16%	57.97%	57.59%	33.08%	49.99%	51.18%	14.04%	42.38%	65.06%	72%	57%	75%	activity at 10 µM [21]: 60.8%; melting point: 208 to 210 °C; Growth Percentage (%) [22]: 55.90%; Growth Percentage (%) [23]: 76.34%
CCOC(=O)c1c(NC(=O)C2CC2)nn(C)c1Nc1ccccc1 [compound 17, Ethyl 3-(cyclopropanecarboxamido)-1-methyl-5-(phenylamino)-1H-pyrazole-4-carboxylate]	107.16%	100.69%	99.45%	99.58%	98.67%	93.55%	86.39%	101.07%	107.78%	101.26%	104.27%	92.87%	104.77%	87.45%	118.46%	93.07%	100.37%	127%	106%	103%	activity at 10 µM [21]: 75.8%; melting point: 144 to 145 °C; Growth Percentage (%) [22]: 95.84%; Growth Percentage (%) [23]: 104.67%
